Test [1] concerns the target T1, glutathione S-transferase (GST)-fused full-length human Syk protein (Homo sapiens, UniProt P43405).
T1 construct: (GST)-fused full-length human Syk protein; GST (glutathione S-transferase); purchased Carna Biosciences
Description: Syk enzyme assay. The format is biochemical. To be noted: Syk enzyme assay, Test Example 1; read-out: IC50 of Syk-inhibitory activity. Put shortly:
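Baculovirus-expressed enzyme (1.2 ng) was preincubated with compound in HEPES pH 7.0/MgCl2/DTT buffer, 2 min shaking then 13 min at room temperature. Biotin-EDPDYEWPSA-NH2 (0.4 μM final) and ATP (27 μM final) were added for 40 min at room temperature. EDTA stop, streptavidin-XL/PT66-K TR-FRET at 615/665 nm gave IC50.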

Test [2] has as its system THP-1 cells. Description: TNFα generation assay. The test is classed as cell-based, human. The settings on record: Table 22, read-out: IC50 in TNFα generation assay. Put shortly:
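THP-1 cells differentiated to macrophage-like cells with 10 ng/ml IFN-γ for 2 days, preincubated with compound 30 min at room temperature, then cultured 7 h on plates coated with human IgG (10 μg/ml). Secreted TNFα measured by ELISA or AlphaLISA.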

[3] abbreviates: Homo sapiens, THP-1, THP-1 cells.

Molecules are shown by their SMILES. Read-outs that look alike come from different tables or passages of the source. A value given as a limit tells only on which side of the number the result lay.

For the molecule `CC(C)C[C@H](CN)Nc1nc(Nc2ccnc(-n3nccn3)c2)c(C(N)=O)cc1F` [Example 006-154, (R)-2-((2-(2H-1,2,3-triazol-2-yl)pyridin-4-yl)amino)-6-((1-amino-4-methylpentan-2-yl)amino)-5-fluoronicotinamide], the figures for the IC50 in test [1] and in test [2] (setting [3]) were less than 10 nM and 65 to 130 nM, respectively.

As for `CC(C)C[C@H](CN)Nc1nc(Nc2ccnc(-c3ccoc3)c2)c(C(N)=O)cc1F` [Example 006-155, (R)-6-((1-amino-4-methylpentan-2-yl)amino)-5-fluoro-2-((2-(furan-3-yl)pyridin-4-yl)amino)nicotinamide], the IC50 is less than 10 nM in test [1] and 65 to 130 nM in test [2] (setting [3]).

As to `COc1cc(Nc2nc(N[C@@H](CN)CC(C)C)c(F)cc2C(N)=O)cc(OC)n1` [Example 006-156, (R)-6-((1-amino-4-methylpentan-2-yl)amino)-2-((2,6-dimethoxypyridin-4-yl)amino)-5-fluoronicotinamide], the IC50 in test [1] is less than 10 nM; in test [2] (setting [3]) it was 130 to 200 nM.

Turning to `CC(C)CC(Nc1nc(Nc2ccc3ncccc3c2)c(C(N)=O)cc1F)[C@H](C)N` (stereo partly drawn) [Example 006-159, 6-(((2S)-2-amino-5-methylhexan-3-yl)amino)-5-fluoro-2-(quinolin-6-ylamino)nicotinamide], the IC50 was less than 10 nM in test [1] and 130 to 200 nM in test [2] (setting [3]).

Turning to `CC(C)[C@H](CN)Nc1nc(Nc2ccc3ncccc3c2)c(C(N)=O)cc1F` [Example 006-160, (R)-6-((1-amino-3-methylbutan-2-yl)amino)-5-fluoro-2-(quinolin-6-ylamino)nicotinamide], the IC50 was less than 10 nM in test [1] and 65 to 130 nM in test [2] (setting [3]).

Regarding `CCC[C@H](CN)Nc1nc(Nc2ccc3ncccc3c2)c(C(N)=O)cc1F` [Example 006-161, (R)-6-((1-aminopentan-2-yl)amino)-5-fluoro-2-(quinolin-6-ylamino)nicotinamide], the IC50 in test [1] was less than 10 nM; in test [2] (setting [3]), less than 65 nM.

As for `NC(=O)c1cc(F)c(N[C@@H]2CCCC[C@@H]2N)nc1Nc1cncc(-c2ccccc2F)c1` [Example 006-166, 6-(((1R,2S)-2-aminocyclohexyl)amino)-5-fluoro-2-((5-(2-fluorophenyl)pyridin-3-yl)amino)fluoronicotinamide], the IC50 was less than 10 nM in test [1] and less than 65 nM in test [2] (THP-1 cells).

For the molecule `NC(=O)c1cc(F)c(N[C@@H]2CCCC[C@@H]2N)nc1Nc1cncc(C2CC2)c1` [Example 006-167, 6-(((1R,2S)-2-aminocyclohexyl)amino)-2-((5-cycylopropylpyridin-3-yl)amino)-5-fluoronicotinamide], the IC50 in test [1] is less than 10 nM; in test [2] (setting [3]) it was less than 65 nM.

For `NC(=O)c1cc(F)c(N[C@@H]2CCCC[C@@H]2N)nc1Nc1cncc(-n2cccn2)c1` [Example 006-168, 2-((5-(1H-pyrazol-1-yl)pyridin-3-yl)amino)-6-(((1R,2S)-2-aminocyclohexyl)amino)-5-fluoronicotinamide], the IC50 in test [1] is less than 10 nM; in test [2] (THP-1 cells) it was less than 65 nM.

In the case of `CCCOc1cc(Nc2nc(N[C@@H]3CCCC[C@@H]3N)c(F)cc2C(N)=O)ccn1` [Example 006-169, 6-(((1R,2S)-2-aminocyclohexyl)amino)-5-fluoro-2-((2-propoxypyridin-4-yl)amino)nicotinamide], the IC50 in test [1] was less than 10 nM; in test [2] (setting [3]) it was less than 65 nM.

Regarding `CC(C)C[C@H](CN)Nc1nc(Nc2cncc(-n3cccn3)c2)c(C(N)=O)cc1F` [Example 006-170, (R)-2-((5-(1H-pyrazol-1-yl)pyridin-3-yl)amino)-6-((1-amino-4-methylpentan-2-yl)amino)-5-fluoronicotinamide], the IC50 was less than 10 nM in test [1] and 65 to 130 nM in test [2] (setting [3]).

Consider `COc1ccc2cc(Nc3nc(N[C@@H]4CCCC[C@@H]4N)c(F)cc3C(N)=O)cnc2c1` [Example 006-172, 6-(((1R,2S)-2-aminocyclohexyl)amino)-5-fluoro-2-((7-methoxyquinolin-3-yl)amino)nicotinamide], for which the IC50 in test [1] is less than 10 nM; in test [2] (THP-1 cells), 65 to 130 nM.

Regarding `COc1ccc2cc(Nc3nc(N[C@@H](CN)CC(C)C)c(F)cc3C(N)=O)cnc2c1` [Example 006-176, (R)-6-((1-amino-4-methylpentan-2-yl)amino)-5-fluoro-2-((7-methoxyquinolin-3-yl)amino)nicotinamide], the IC50 is less than 10 nM in test [1] and 65 to 130 nM in test [2] (setting [3]).

As to `CC[C@@H](Nc1nc(Nc2ccc3ncccc3c2)c(C(N)=O)cc1F)[C@H](C)N` [Example 006-178, 6-(((2S,3R)-2-aminopentan-3-yl)amino)-5-fluoro-2-((quinolin-6-yl)amino)nicotinamide], the IC50 in test [1] was less than 10 nM; in test [2] (setting [3]) it was less than 65 nM.

Turning to `CC(C)C[C@H](CN)Nc1nc(Nc2cncc(Cl)c2)c(C(N)=O)cc1F` [Example 006-180, (R)-6-((1-amino-4-methylpentan-2-yl)amino)-2-((5-chloropyridin-3-yl)amino)-5-fluoronicotinamide], the IC50 in test [1] was less than 10 nM; in test [2] (setting [3]), 130 to 200 nM.

Take `NC[C@H](Nc1nc(Nc2ccc3ncccc3c2)c(C(N)=O)cc1F)C1CC1` [Example 006-186, (R)-6-((2-amino-1-cyclopropylethyl)amino)-5-fluoro-2-((quinolin-6-yl)amino)nicotinamide]: the results for the IC50 in test [1] and in test [2] (setting [3]) were less than 10 nM and less than 65 nM, respectively.

As to `CC[C@@H](Nc1nc(Nc2cnc3cc(OC)ccc3c2)c(C(N)=O)cc1F)[C@H](C)N` [Example 006-190, 6-(((2S,3R)-2-aminopentan-3-yl)amino)-5-fluoro-2-((7-methoxyquinolin-3-yl)amino)nicotinamide], the IC50 is less than 10 nM in test [1] and less than 65 nM in test [2] (setting [3]).

`CC[C@H](N)[C@@H](C)Nc1nc(Nc2ccc3ncccc3c2)c(C(N)=O)cc1F` [Example 006-198, 6-(((2R,3S)-3-aminopentan-2-yl)amino)-5-fluoro-2-((quinolin-6-yl)amino)nicotinamide]: the IC50 in test [1] is less than 10 nM; in test [2] (setting [3]), 65 to 130 nM.

As to `CC[C@H](N)[C@@H](CC)Nc1nc(Nc2ccc3ncccc3c2)c(C(N)=O)cc1F` [Example 006-199, 6-(((3R,4S)-4-aminohexan-3-yl)amino)-5-fluoro-2-((quinolin-6-yl)amino)nicotinamide], the IC50 in test [1] was less than 10 nM; in test [2] (setting [3]), 65 to 130 nM.

Consider `CCC[C@@H](Nc1nc(Nc2ccc3ncccc3c2)c(C(N)=O)cc1F)[C@@H](N)CC` [Example 006-200, 6-(((3S,4R)-3-aminoheptan-4-yl)amino)-5-fluoro-2-((quinolin-6-yl)amino)nicotinamide], for which the IC50 in test [1] was less than 10 nM; in test [2] (setting [3]) it was 65 to 130 nM.

As for `CC[C@H](N)[C@@H](CC(C)C)Nc1nc(Nc2ccc3ncccc3c2)c(C(N)=O)cc1F` [Example 006-201, 6-(((4R,5S)-5-amino-2-methylheptan-4-yl)amino)-5-fluoro-2-((quinolin-6-yl)amino)nicotinamide], the values for the IC50 in test [1] and in test [2] (setting [3]) were less than 10 nM and 130 to 200 nM, respectively.

For `CCC[C@@H](Nc1nc(Nc2cnc3cc(OC)ccc3c2)c(C(N)=O)cc1F)[C@H](C)N` [Example 006-204, 6-(((2S,3R)-2-aminohexan-3-yl)amino)-5-fluoro-2-((7-methoxyquinolin-3-yl)amino)nicotinamide], the figures for the IC50 in test [1] and in test [2] (setting [3]) were less than 10 nM and 65 to 130 nM, respectively.

With `COc1ccc2cc(Nc3nc(N[C@H](CC(C)C)[C@H](C)N)c(F)cc3C(N)=O)cnc2c1` [Example 006-206, 6-(((2S,3R)-2-amino-5-methylhexan-3-yl)amino)-5-fluoro-2-((7-methoxyquinolin-3-yl)amino)nicotinamide], the IC50 in test [1] was less than 10 nM; in test [2] (setting [3]) it was 130 to 200 nM.

As to `CCC[C@@H](Nc1nc(Nc2ccc3ncccc3c2)c(C(N)=O)cc1F)[C@H](C)N` [Example 006-207, 6-(((2S,3R)-2-aminohexan-3-yl)amino)-5-fluoro-2-((quinolin-6-yl)amino)nicotinamide], the IC50 in test [1] was less than 10 nM; in test [2] (setting [3]), less than 65 nM.

For `CCCC[C@@H](Nc1nc(Nc2ccc3ncccc3c2)c(C(N)=O)cc1F)[C@H](C)N` [Example 006-208, 6-(((2S,3R)-2-aminoheptan-3-yl)amino)-5-fluoro-2-((quinolin-6-yl)amino)nicotinamide], the IC50 in test [1] was less than 10 nM; in test [2] (setting [3]), 65 to 130 nM.

Consider `CC(C)C[C@@H](Nc1nc(Nc2ccc3ncccc3c2)c(C(N)=O)cc1F)[C@H](C)N` [Example 006-209, 6-(((2S,3R)-2-amino-5-methylhexan-3-yl)amino)-5-fluoro-2-((quinolin-6-yl)amino)nicotinamide], for which the values for the IC50 in test [1] and in test [2] (setting [3]) were less than 10 nM and 65 to 130 nM, respectively.

`CC[C@@H](Nc1nc(Nc2ccc3c(cnn3C)c2)c(C(N)=O)cc1F)[C@H](C)N` [Example 006-210, 6-(((2S,3R)-2-aminopentan-3-yl)amino)-5-fluoro-2-((1-methyl-1H-indazol-5-yl)amino)nicotinamide]: the IC50 in test [1] was less than 10 nM; in test [2] (setting [3]), less than 65 nM.

In the case of `CC(C)C[C@H](CN)Nc1nc(Nc2ccc3nccnc3c2)c(C(N)=O)cc1F` [Example 006-212, (R)-6-((1-amino-4-methylpentan-2-yl)amino)-5-fluoro-2-((quinoxalin-6-yl)amino)nicotinamide], the figures for the IC50 in test [1] and in test [2] (setting [3]) were less than 10 nM and 130 to 200 nM, respectively.

Turning to `NC[C@@H](CC1CC1)Nc1nc(Nc2ccc3ncccc3c2)c(C(N)=O)cc1F` [Example 006-214, (R)-6-((1-amino-3-cyclopropylpropan-2-yl)amino)-5-fluoro-2-((quinolin-6-yl)amino)nicotinamide], the results for the IC50 in test [1] and in test [2] (setting [3]) were less than 10 nM and 65 to 130 nM, respectively.

(Values after patent US8895585B2, “Nicotinamide derivative or salt thereof” (FUJIFILM Corporation, priority 2010, dated 2014).)
